Data as given in ChEMBL document CHEMBL1143471, “Synthesis of [1,2,4]triazolo[1,5-a]pyrazines as adenosine A2A receptor antagonists” (Bioorg Med Chem Lett, 2005).

What was measured:
Adenosine receptor A2a = Adenosine receptor A2a (Rattus norvegicus, UniProt P30543); assay: biochemical
Adenosine receptor A1 = target: T1, Adenosine receptor A1 (Rattus norvegicus, UniProt P25099); assay: biochemical
T1 sequence (P25099 whole entry): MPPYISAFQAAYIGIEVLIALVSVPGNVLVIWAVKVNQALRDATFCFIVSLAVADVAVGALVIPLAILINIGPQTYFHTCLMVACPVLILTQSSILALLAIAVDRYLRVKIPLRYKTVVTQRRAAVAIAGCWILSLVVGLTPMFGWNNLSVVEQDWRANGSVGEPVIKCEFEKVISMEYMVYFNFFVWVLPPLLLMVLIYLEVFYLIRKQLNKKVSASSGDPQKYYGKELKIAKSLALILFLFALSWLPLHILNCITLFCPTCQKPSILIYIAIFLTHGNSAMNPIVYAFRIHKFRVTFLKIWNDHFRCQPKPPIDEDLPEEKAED

Adenosine receptor A2a, sequence (P30543 whole entry): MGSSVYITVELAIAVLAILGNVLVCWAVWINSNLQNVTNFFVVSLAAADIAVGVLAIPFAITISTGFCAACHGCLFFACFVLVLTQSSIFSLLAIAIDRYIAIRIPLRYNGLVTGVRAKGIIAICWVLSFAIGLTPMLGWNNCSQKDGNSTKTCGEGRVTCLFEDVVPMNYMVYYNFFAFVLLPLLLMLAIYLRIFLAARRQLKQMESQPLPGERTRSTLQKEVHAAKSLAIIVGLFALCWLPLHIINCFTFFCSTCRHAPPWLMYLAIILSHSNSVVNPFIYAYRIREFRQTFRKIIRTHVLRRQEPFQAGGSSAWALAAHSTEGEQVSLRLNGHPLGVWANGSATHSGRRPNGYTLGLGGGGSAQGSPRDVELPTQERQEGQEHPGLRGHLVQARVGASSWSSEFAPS

| SMILES | Ki (Adenosine receptor A2a) [µM] | Ki (Adenosine receptor A1) [µM] |
| --- | --- | --- |
| CC(C)c1cccc(-c2cn3nc(-c4ccco4)nc3c(N)n2)c1 | 0.68 |  |
| Nc1cccc(-c2cn3nc(-c4ccco4)nc3c(N)n2)c1 | 0.63 |  |
| CC(=O)Nc1cccc(-c2cn3nc(-c4ccco4)nc3c(N)n2)c1 | 0.16 |  |
| Nc1nc(-c2ccc(C(=O)NCCc3ccc(O)cc3)cc2)cn2nc(-c3ccco3)nc12 | 0.83 | 0.036 |
| N#Cc1ccc(-c2cn3nc(-c4ccco4)nc3c(N)n2)cc1 | > 1 |  |
| Nc1nc(-c2cccc3ccccc23)cn2nc(-c3ccco3)nc12 | 0.42 |  |
| N#Cc1cccc(-c2cn3nc(-c4ccco4)nc3c(N)n2)c1 | 0.16 |  |
| Nc1nc(-c2ccc(CO)cc2)cn2nc(-c3ccco3)nc12 | > 1 |  |
| Nc1nc(-c2cncnc2)cn2nc(-c3ccco3)nc12 | 0.36 |  |
| Nc1nc(-c2cccnc2)cn2nc(-c3ccco3)nc12 | 0.46 |  |
| CCCCNC(=O)c1cn2nc(-c3ccco3)nc2c(N)n1 | 0.001 | 0.12 |
| Nc1nc(C(=O)N2CCN(c3ccncc3)CC2)cn2nc(-c3ccco3)nc12 | > 0.25 | > 0.25 |
| Nc1nc(-c2cccc(C(=O)N3CCOCC3)c2)cn2nc(-c3ccco3)nc12 | 0.24 | < 0.25 |
| Nc1nc(-c2cccc([N+](=O)[O-])c2)cn2nc(-c3ccco3)nc12 | 0.46 |  |
| Nc1nc(-c2cccc(C(=O)NCCc3ccc(O)cc3)c2)cn2nc(-c3ccco3)nc12 | 0.18 | > 0.25 |
| Nc1nc(C(=O)N2CCOCC2)cn2nc(-c3ccco3)nc12 | > 0.25 | > 0.25 |
| CCN(CC)C(=O)c1cccc(-c2cn3nc(-c4ccco4)nc3c(N)n2)c1 | 0.001 | 0.041 |
| CN(C)c1cccc(-c2cn3nc(-c4ccco4)nc3c(N)n2)c1 | 0.14 |  |
| Nc1nc(-c2cccc(CO)c2)cn2nc(-c3ccco3)nc12 | 0.47 |  |
| Nc1nc(-c2cccc(C(F)(F)F)c2)cn2nc(-c3ccco3)nc12 | 0.22 |  |
| Nc1nc(-c2ccc([N+](=O)[O-])cc2)cn2nc(-c3ccco3)nc12 | > 1 |  |
| Nc1nc(-c2ccco2)cn2nc(-c3ccco3)nc12 | 0.4 |  |

| SMILES | Ki (Adenosine receptor A2a) [µM] | Ki (Adenosine receptor A1) [µM] |
| --- | --- | --- |
| CN(C)C(=O)c1cccc(-c2cn3nc(-c4ccco4)nc3c(N)n2)c1 | 0.07 | 0.12 |
| Nc1ccc(-c2cn3nc(-c4ccco4)nc3c(N)n2)cc1 | > 1 |  |
| CC(=O)c1cccc(-c2cn3nc(-c4ccco4)nc3c(N)n2)c1 | 0.075 |  |
| Nc1nc(-c2cccc3cccnc23)cn2nc(-c3ccco3)nc12 | 0.25 |  |
| CN(Cc1ccccc1)C(=O)c1cn2nc(-c3ccco3)nc2c(N)n1 | 0.027 | 0.16 |
| Nc1nc(C(=O)N2CCN(Cc3ccccc3)CC2)cn2nc(-c3ccco3)nc12 | > 0.25 | > 0.25 |
| CCOC(=O)c1ccc(-c2cn3nc(-c4ccco4)nc3c(N)n2)cc1 | > 1 |  |
| Nc1nc(-c2cccc(C(=O)O)c2)cn2nc(-c3ccco3)nc12 | > 1 |  |
| Nc1nc(-c2ccc(C(=O)N3CCOCC3)cc2)cn2nc(-c3ccco3)nc12 | 0.019 | 1.8 |
| CC(C)NC(=O)c1cccc(-c2cn3nc(-c4ccco4)nc3c(N)n2)c1 | 0.14 | 0.29 |
| Nc1nc(-c2cccc(C(=O)N3CCN(c4ccncc4)CC3)c2)cn2nc(-c3ccco3)nc12 | 0.73 | 0.003 |
| Nc1nc(-c2cccc(C(=O)N3CCN(Cc4ccccc4)CC3)c2)cn2nc(-c3ccco3)nc12 | 0.68 | > 0.25 |
| COc1cccc(-c2cn3nc(-c4ccco4)nc3c(N)n2)c1 | 0.27 |  |
| CCOC(=O)c1cccc(-c2cn3nc(-c4ccco4)nc3c(N)n2)c1 | 0.37 |  |
| Nc1nc(-c2ccc(C(=O)NCCCn3ccnc3)cc2)cn2nc(-c3ccco3)nc12 | 0.33 | > 0.25 |
| CS(=O)(=O)c1cccc(-c2cn3nc(-c4ccco4)nc3c(N)n2)c1 | 0.11 |  |
| Nc1nc(C(=O)NCCCc2ccccc2)cn2nc(-c3ccco3)nc12 | 0.028 | 0.24 |
| Nc1nc(-c2ccc(C(F)(F)F)cc2)cn2nc(-c3ccco3)nc12 | > 1 |  |
| Nc1nc(C(=O)NCc2ccccc2)cn2nc(-c3ccco3)nc12 | 0.002 | 0.014 |
| NC(=O)c1cccc(-c2cn3nc(-c4ccco4)nc3c(N)n2)c1 | 0.11 |  |
| CN(C)c1ccc(-c2cn3nc(-c4ccco4)nc3c(N)n2)cc1 | > 1 |  |
| Nc1nc(C(=O)NCCc2ccc(O)cc2)cn2nc(-c3ccco3)nc12 | 0.001 | 0.32 |
